Laboratory results from ChEMBL document CHEMBL1158895, “Tartrolone C: a novel insecticidal macrodiolide produced by Streptomyces sp. CP1130” (2003).

Columns and labels:
Heliothis virescens = test: Antilepidopteran activity against tobacco budworm eggs assessed as minimum emergent larvicide concentration after 6 to 7 days; assay type: functional
Spodoptera exigua = test: Antilepidopteran activity against beet armyworm eggs assessed as minimum emergent larvicide concentration after 6 to 7 days; assay type: functional

## CC[C@H]1CCC[C@H](O[C@H]2CC[C@H](N(C)C)[C@@H](C)O2)[C@@H](C)C(=O)C2=C[C@@H]3[C@@H](C=C[C@@H]4C[C@@H](O[C@@H]5O[C@@H](C)[C@H](OC)[C@@H](OC)[C@H]5OC)C[C@@H]34)[C@@H]2CC(=O)O1 [SPINOSYN A]
Heliothis virescens
  Activity: 0.4 ppm
Spodoptera exigua
  Activity: 3 ppm

## C[C@@H]1C(=O)C[C@@H](O)CC/C=C/C=C\CC[C@H](C)OC(=O)[C@@H]2O[B-]34O[C@@H](C(=O)O[C@@H](C)CC/C=C\C=C\CC[C@H](O)CC(=O)[C@@H](C)[C@@H]5CC[C@](C)(O)[C@]2(O5)O3)[C@@]2(O[C@H]1CC[C@]2(C)O)O4 [TARTROLON C]
Heliothis virescens
  Activity: 125 ppm
Spodoptera exigua
  Activity: 125 ppm
